≈ marks a conversion by molar mass, not a printed value.
Assays:
Assay in all cases: in vitro antibacterial evaluation, MIC by broth dilution
Type in all cases: cell-based
Enterococcus sp. = settings: broth dilution, 18 hours at 35° C.; for MIC Enterococcus faecalis (ATCC 29212): strain ATCC 29212; for MIC Enterococcus faecalis (GC 2242): strain GC 2242; for MIC Enterococcus faecium (GC 2243): strain GC 2243; for MIC Enterococcus faecalis (GC 2691): strain GC 2691; for MIC Enterococcus faecalis (GC 3059): strain GC 3059; for MIC Enterococcus faecalis (GC 4552): strain GC 4552; for MIC Enterococcus faecalis (GC 4553): strain GC 4553; for MIC Enterococcus faecalis (GC 4554): strain GC 4554; for MIC Enterococcus faecium (GC 4556): strain GC 4556; for MIC Enterococcus faecium (GC 4557): strain GC 4557; for MIC Enterococcus avium (GC 4558): strain GC 4558; for MIC Enterococcus faecalis (GC 6189): strain GC 6189
In short: (§1)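 Broth dilution per NCCLS standard M7-A2 in Muller-Hinton II […], with an inoculum of 5×10^5 CFU/mL and antibiotic spanning 64-0.06 μg/mL. The MIC is the lowest concentration that inhibits growth of the organism.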

Staphylococcus sp. = settings: broth dilution, 18 hours at 35° C.; for MIC Staphylococcus aureus (ATCC 29213): strain ATCC 29213; for MIC Staphylococcus aureus (GC 1131): strain GC 1131; for MIC Staphylococcus aureus (GC 3051): strain GC 3051; for MIC Staphylococcus aureus (GC 3053): strain GC 3053; for MIC Staphylococcus aureus (GC 4541): strain GC 4541; for MIC Staphylococcus aureus (GC 4542): strain GC 4542; for MIC Staphylococcus aureus-SMITH (GC 4543): strain GC 4543; for MIC Staphylococcus aureus (GC 4544): strain GC 4544; for MIC Staphylococcus aureus (GC 4545): strain GC 4545; for MIC Staphylococcus haemolyticus (GC 4546): strain GC 4546; for MIC Coagulase Negative Staphylococcus (GC 4547): strain GC 4547; for MIC Coagulase Negative Staphylococcus (GC 4548): strain GC 4548; for MIC Coagulase Negative Staphylococcus (GC 4549): strain GC 4549; for MIC Coagulase Negative Staphylococcus (GC 4551): strain GC 4551
In short: as §1

Streptococcus sp. = settings: broth dilution, 18 hours at 35° C.; for MIC Streptococcus pneumoniae (ATCC 6301): strain ATCC 6301; for MIC Streptococcus pneumoniae (GC 1894): strain GC 1894; for MIC Streptococcus pyogenes (GC 4563): strain GC 4563; for MIC Streptococcus agalactiae (GC 4564): strain GC 4564; for MIC Streptococcus pneumoniae (GC 4565): strain GC 4565
In short: as §1

Escherichia coli = settings: broth dilution, 18 hours at 35° C.; for MIC Escherichia coli (ATCC 25922): strain ATCC 25922; for MIC Escherichia coli (GC 4559): strain GC 4559; for MIC Escherichia coli (GC 4560): strain GC 4560
In short: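 Broth dilution in Muller-Hinton II medium per NCCLS standard M7-A2, with an inoculum of 5×10^5 CFU/mL and antibiotic tested over 64-0.06 μg/mL. MIC was taken as the lowest concentration inhibiting visible growth.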

SMILES | MIC Enterococcus faecalis (ATCC 29212) (Enterococcus sp.) [µg/mL] | MIC Enterococcus faecalis (GC 2242) (Enterococcus sp.) [µg/mL] | MIC Enterococcus faecium (GC 2243) (Enterococcus sp.) [µg/mL] | MIC Enterococcus faecalis (GC 2691) (Enterococcus sp.) [µg/mL] | MIC Enterococcus faecalis (GC 3059) (Enterococcus sp.) [µg/mL] | MIC Enterococcus faecalis (GC 4552) (Enterococcus sp.) [µg/mL] | MIC Enterococcus faecalis (GC 4553) (Enterococcus sp.) [µg/mL] | MIC Enterococcus faecalis (GC 4554) (Enterococcus sp.) [µg/mL] | MIC Enterococcus faecium (GC 4556) (Enterococcus sp.) [µg/mL] | MIC Enterococcus faecium (GC 4557) (Enterococcus sp.) [µg/mL] | MIC Enterococcus avium (GC 4558) (Enterococcus sp.) [µg/mL] | MIC Enterococcus faecalis (GC 6189) (Enterococcus sp.) [µg/mL] | MIC Staphylococcus aureus (ATCC 29213) (Staphylococcus sp.) [µg/mL] | MIC Staphylococcus aureus (GC 1131) (Staphylococcus sp.) [µg/mL] | MIC Staphylococcus aureus (GC 3051) (Staphylococcus sp.) [µg/mL] | MIC Staphylococcus aureus (GC 3053) (Staphylococcus sp.) [µg/mL] | MIC Staphylococcus aureus (GC 4541) (Staphylococcus sp.) [µg/mL] | MIC Staphylococcus aureus (GC 4542) (Staphylococcus sp.) [µg/mL] | MIC Staphylococcus aureus-SMITH (GC 4543) (Staphylococcus sp.) [µg/mL] | MIC Staphylococcus aureus (GC 4544) (Staphylococcus sp.) [µg/mL] | also measured
CC(c1ccccc1)C1NC(=O)CNC(=O)C(CO)NC(=O)C(C(O)C2CNC(=N)N2C2OC(CO)C(O)C(O)C2O)NC(=O)C(C(O)C2CNC(=N)N2)NC(=O)C(Cc2ccc3oc(-c4ccc(N(C)C)cc4)nc3c2)NC1=O (stereo not drawn) [Example 29, Cyclo[3-[2-[4-(dimethylamino)phenyl]-1,3-benzoxazol-5-yl]alanyl-3-(2-iminoimidazolidin-4-yl)-seryl-3-(3-hexopyranosyl-2-iminoimidazolidin-4-yl)serylserylglycyl-β-methylphenyl-alanyl]] | 32 (≈ 28.7 µM) | 32 (≈ 28.7 µM) | 16 (≈ 14.3 µM) | 32 (≈ 28.7 µM) | 64 (≈ 57.4 µM) | 64 (≈ 57.4 µM) | 16 (≈ 14.3 µM) | 32 (≈ 28.7 µM) | 64 (≈ 57.4 µM) | 8 (≈ 7.17 µM) | 16 (≈ 14.3 µM) | 32 (≈ 28.7 µM) | 8 (≈ 7.17 µM) | 8 (≈ 7.17 µM) | 8 (≈ 7.17 µM) | 8 (≈ 7.17 µM) | 8 (≈ 7.17 µM) | 8 (≈ 7.17 µM) | 8 (≈ 7.17 µM) | 8 (≈ 7.17 µM) | MIC Staphylococcus aureus (GC 4545) (Staphylococcus sp.): 8 µg/mL (≈ 7.17 µM); MIC Staphylococcus haemolyticus (GC 4546) (Staphylococcus sp.): 4 µg/mL (≈ 3.59 µM); MIC Coagulase Negative Staphylococcus (GC 4547) (Staphylococcus sp.): 4 µg/mL (≈ 3.59 µM); MIC Coagulase Negative Staphylococcus (GC 4548) (Staphylococcus sp.): 4 µg/mL (≈ 3.59 µM); MIC Coagulase Negative Staphylococcus (GC 4549) (Staphylococcus sp.): 2 µg/mL (≈ 1.79 µM); MIC Coagulase Negative Staphylococcus (GC 4551) (Staphylococcus sp.): 8 µg/mL (≈ 7.17 µM); MIC Coagulase Negative Staphylococcus (GC 6257) (Staphylococcus sp.; strain GC 6257): 4 µg/mL (≈ 3.59 µM); MIC Streptococcus pneumoniae (ATCC 6301) (Streptococcus sp.): 32 µg/mL (≈ 28.7 µM); MIC Streptococcus pneumoniae (GC 1894) (Streptococcus sp.): 32 µg/mL (≈ 28.7 µM); MIC Streptococcus pyogenes (GC 4563) (Streptococcus sp.): 16 µg/mL (≈ 14.3 µM); MIC Streptococcus agalactiae (GC 4564) (Streptococcus sp.): 32 µg/mL (≈ 28.7 µM); MIC Streptococcus pneumoniae (GC 4565) (Streptococcus sp.): 32 µg/mL (≈ 28.7 µM); MIC Escherichia coli (ATCC 25922) (Escherichia coli): 16 µg/mL (≈ 14.3 µM); MIC Escherichia coli (GC 4559) (Escherichia coli): 16 µg/mL (≈ 14.3 µM); MIC Escherichia coli (GC 4560) (Escherichia coli): 4 µg/mL (≈ 3.59 µM)
CC(c1ccccc1)C1NC(=O)CNC(=O)C(CO)NC(=O)C(C(O)C2CNC(=N)N2C2OC(CO)C(O)C(O)C2O)NC(=O)C(C(O)C2CNC(=N)N2)NC(=O)C(Cc2ccc3oc(SCc4ccc(-c5ccccc5)cc4)nc3c2)NC1=O (stereo not drawn) [Example 47] | 8 (≈ 6.7 µM) | 4 (≈ 3.35 µM) | 4 (≈ 3.35 µM) | 32 (≈ 26.8 µM) | 32 (≈ 26.8 µM) | 16 (≈ 13.4 µM) | 4 (≈ 3.35 µM) | 64 (≈ 53.6 µM) | 8 (≈ 6.7 µM) | 4 (≈ 3.35 µM) | 2 (≈ 1.67 µM) | 32 (≈ 26.8 µM) | 16 (≈ 13.4 µM) | 32 (≈ 26.8 µM) | 32 (≈ 26.8 µM) | 16 (≈ 13.4 µM) | 16 (≈ 13.4 µM) | 16 (≈ 13.4 µM) | 8 (≈ 6.7 µM) | 16 (≈ 13.4 µM) | MIC Staphylococcus aureus (GC 4545) (Staphylococcus sp.): 16 µg/mL (≈ 13.4 µM); MIC Staphylococcus haemolyticus (GC 4546) (Staphylococcus sp.): 8 µg/mL (≈ 6.7 µM); MIC Coagulase Negative Staphylococcus (GC 4547) (Staphylococcus sp.): 16 µg/mL (≈ 13.4 µM); MIC Coagulase Negative Staphylococcus (GC 4548) (Staphylococcus sp.): 2 µg/mL (≈ 1.67 µM); MIC Coagulase Negative Staphylococcus (GC 4549) (Staphylococcus sp.): 0.5 µg/mL (≈ 0.419 µM); MIC Coagulase Negative Staphylococcus (GC 4551) (Staphylococcus sp.): 8 µg/mL (≈ 6.7 µM); MIC Streptococcus pneumoniae (ATCC 6301) (Streptococcus sp.): 4 µg/mL (≈ 3.35 µM); MIC Streptococcus pneumoniae (GC 1894) (Streptococcus sp.): 2 µg/mL (≈ 1.67 µM); MIC Streptococcus pyogenes (GC 4563) (Streptococcus sp.): 1 µg/mL (≈ 0.837 µM); MIC Streptococcus agalactiae (GC 4564) (Streptococcus sp.): 2 µg/mL (≈ 1.67 µM); MIC Streptococcus pneumoniae (GC 4565) (Streptococcus sp.): 8 µg/mL (≈ 6.7 µM); MIC Escherichia coli (ATCC 25922) (Escherichia coli): >64 µg/mL; MIC Escherichia coli (GC 4559) (Escherichia coli): >64 µg/mL; MIC Escherichia coli (GC 4560) (Escherichia coli): 32 µg/mL (≈ 26.8 µM)

Reference: patent US6914045B2, “Glycopeptide antibiotics” (Wyeth Holdings Corporation, priority 2001, dated 2005)
